{"source": "patent US7183061B2", "about": "“Method of expressing Heliothis ecdysone receptor fusion protein” (Syngenta Limited, priority 1996, dated 2007)", "molecular_target": "T1, glucocorticoid/Heliothis ecdysone chimeric receptor (UniProt O18473+P04150)", "T1 sequence (P04150+O18473 with tags, fused parts or gaps)": "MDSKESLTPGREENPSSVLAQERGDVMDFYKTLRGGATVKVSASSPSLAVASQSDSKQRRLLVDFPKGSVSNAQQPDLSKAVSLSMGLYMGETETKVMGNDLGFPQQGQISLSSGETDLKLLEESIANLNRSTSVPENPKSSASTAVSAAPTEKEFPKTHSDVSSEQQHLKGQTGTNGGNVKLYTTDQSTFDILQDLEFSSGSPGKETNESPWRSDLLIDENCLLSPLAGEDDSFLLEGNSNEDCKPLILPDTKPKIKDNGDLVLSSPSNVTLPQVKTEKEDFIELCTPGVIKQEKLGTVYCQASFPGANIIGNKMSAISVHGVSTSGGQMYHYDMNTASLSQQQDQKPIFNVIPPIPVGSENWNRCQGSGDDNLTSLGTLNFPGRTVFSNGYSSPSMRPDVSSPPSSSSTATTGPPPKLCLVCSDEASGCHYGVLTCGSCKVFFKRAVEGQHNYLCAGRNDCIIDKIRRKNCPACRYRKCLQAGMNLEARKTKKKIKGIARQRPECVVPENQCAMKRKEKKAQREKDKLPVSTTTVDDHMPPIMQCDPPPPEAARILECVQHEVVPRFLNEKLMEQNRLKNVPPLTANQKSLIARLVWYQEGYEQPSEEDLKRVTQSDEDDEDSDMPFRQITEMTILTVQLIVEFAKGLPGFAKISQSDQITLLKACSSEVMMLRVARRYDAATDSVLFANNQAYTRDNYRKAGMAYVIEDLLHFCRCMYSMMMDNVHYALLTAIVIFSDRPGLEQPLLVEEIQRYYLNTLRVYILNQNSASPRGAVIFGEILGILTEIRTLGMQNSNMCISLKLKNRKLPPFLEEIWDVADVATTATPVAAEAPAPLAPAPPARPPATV", "experiment": "Tobacco mesophyll protoplast GUS reporter assay with chimeric effector and p221.9GRE6", "assay_type": "cell-based, Heliothis virescens", "parameters": "expressed in transfected cells; host or cells: maize protoplasts (A5); tobacco mesophyll protoplasts (A6); CHO-K1 (A7); HEK293 (A8); stably transformed tobacco plants (A9)", "conditions": "tobacco protoplasts, 10 μM", "experimental": "It is the aim in this example to show the generic application to plants of the glucocorticoid/Heliothis ecdysone chimeric receptor switch system. Tobacco shoot cultures cv. Samsun, were maintained on solidified MS medium +3% sucrose in a controlled environment room (16 hour day/8 hour night at 25° C., 55% R.H), were used as the source material for protoplasts. Leaves were sliced parallel to the mid-rib, discarding any large veins and the slices were placed in CPW13M 13% Mannitol, pH 5.6, ˜860 mmol/kg) for ˜1 hour to pre-plasmolyse the cells. This solution was replaced with enzyme mixture (0.2% Cellulase R10, 0.05% Macerozyme R10 in CPW9M (CPW13M but 9% Mannitol), pH 5.6, ˜600 mmol/kg) and incubated in the dark at 25° C. overnight (˜16 hours). Following digestion, the tissue was teased apart with forceps and any large undigested pieces were discarded. The enzyme mixture was passed through a 75 μm sieve and the filtrate was centrifuged at 600 rpm for 3.5 minutes, discarding the supernatant. The pellet was resuspended in 0.6 M sucrose solution and centrifuged at 600 rpm for 10 minutes. The floating layer of protoplasts was removed using a Pasteur pipette and diluted with CPW9M (pH 5.6, ˜560 mmol/kg). The protoplasts were again pelleted by centrifuging at 600 rpm for 3.5 minutes, resuspended in CPW9M and counted. A modified version of the PEG-mediated transformation above was carried out. […]"}
{"smiles": "CCc1ccc(C(=O)NN(C(=O)c2cc(C)cc(C)c2)C(C)(C)C)cc1", "note": "[RH5992, 3,5-dimethylbenzoic acid 1-1(1,1-dimethylethyl)-2(4-ethylbenzoyl)hydrazide]", "values": [{"measurement": "marker gene activity", "result": "significant elevation of marker gene activity"}]}
